Source: article doi:10.1101/2025.01.23.634542, “Convergent Agonist and Heat Activation of Nociceptor TRPM3” (bioRxiv, 2025)

What was measured:
[1] = biological target: wild-type rabbit TRPM3 (rTRPM3) (Oryctolagus cuniculus, UniProt G1T6W8); experiment: Whole-cell patch-clamp agonist dose-response, wild-type TRPM3 in tsA cells; assay type: cell-based; conditions: WT TRPM3, whole-cell current at +80 mV
[2] = system: TRPM3 CIM0216 binding site mutants; experiment: CIM0216-induced whole-cell currents in CIM0216 binding site mutants; assay type: cell-based, rabbit; conditions: whole-cell currents at +140 mV, 22 °C (Fig. 1c)
Text: Figure 1: TRPM3 activation by superagonist CIM0216. a, Structure of TRPM3 in complex with CIM0216, shown in cartoon representation and viewed parallel to the membrane. CIM0216 (green) is fitted into the cryo-EM density map (right panel). One subunit is highlighted in red, and the rib helix from the adjacent subunit is highlighted in cyan. b, Close-up view of the CIM0216 binding site, detailing key interactions. c, Whole-cell currents measured in tsA cells overexpressing wild-type TRPM3 or CIM0216 binding site mutants at 22 °C. […] CIM0216-induced current amplitudes at +140 mV were calculated by subtracting the steady-state current recorded before CIM0216 application from the steady-state current recorded after CIM0216 application. Each point represents a single cell (from left to right, n = 6, 4, 5, 4, 4, 4, 4, 4, 4, 5), with bars indicating the mean. Statistical analysis was performed using one-way ANOVA with Bonferroni’s post hoc test (***P < 0.001). d, Structural comparison of CIM0216-bound activated state (red) and apo resting state (blue), superimposed using the TMD (residues 848–1119). Root-mean-square deviations (r.m.s.d.) are shown for individual domains. Black arrows indicate the approximate direction of domain movements.

[3] = system: TRPM3 mutants at the interface between the MHR1/2 domain and the rib helix; experiment: Agonist sensitivity of mutants at the MHR1/2 domain-rib helix interface relative to wild type; assay type: cell-based, rabbit; conditions: interface mutants versus wild type, maximum fold
wild-type TRPM3 = experiment: Primidone inhibition of heat-activated whole-cell currents, wild-type TRPM3; assay type: cell-based, rabbit; conditions: WT TRPM3, heat-activated whole-cell currents at 37 °C with primidone (Fig. 4d)
[4] = system: TRPM3 primidone binding site mutants; experiment: Primidone inhibition of PregS-induced currents in primidone binding site mutants; assay type: cell-based, rabbit; conditions: PregS-induced currents with and without primidone, 22 °C (Fig. 4c)

Chain of wild-type rabbit TRPM3 (rTRPM3) (G1T6W8 entry or part of it): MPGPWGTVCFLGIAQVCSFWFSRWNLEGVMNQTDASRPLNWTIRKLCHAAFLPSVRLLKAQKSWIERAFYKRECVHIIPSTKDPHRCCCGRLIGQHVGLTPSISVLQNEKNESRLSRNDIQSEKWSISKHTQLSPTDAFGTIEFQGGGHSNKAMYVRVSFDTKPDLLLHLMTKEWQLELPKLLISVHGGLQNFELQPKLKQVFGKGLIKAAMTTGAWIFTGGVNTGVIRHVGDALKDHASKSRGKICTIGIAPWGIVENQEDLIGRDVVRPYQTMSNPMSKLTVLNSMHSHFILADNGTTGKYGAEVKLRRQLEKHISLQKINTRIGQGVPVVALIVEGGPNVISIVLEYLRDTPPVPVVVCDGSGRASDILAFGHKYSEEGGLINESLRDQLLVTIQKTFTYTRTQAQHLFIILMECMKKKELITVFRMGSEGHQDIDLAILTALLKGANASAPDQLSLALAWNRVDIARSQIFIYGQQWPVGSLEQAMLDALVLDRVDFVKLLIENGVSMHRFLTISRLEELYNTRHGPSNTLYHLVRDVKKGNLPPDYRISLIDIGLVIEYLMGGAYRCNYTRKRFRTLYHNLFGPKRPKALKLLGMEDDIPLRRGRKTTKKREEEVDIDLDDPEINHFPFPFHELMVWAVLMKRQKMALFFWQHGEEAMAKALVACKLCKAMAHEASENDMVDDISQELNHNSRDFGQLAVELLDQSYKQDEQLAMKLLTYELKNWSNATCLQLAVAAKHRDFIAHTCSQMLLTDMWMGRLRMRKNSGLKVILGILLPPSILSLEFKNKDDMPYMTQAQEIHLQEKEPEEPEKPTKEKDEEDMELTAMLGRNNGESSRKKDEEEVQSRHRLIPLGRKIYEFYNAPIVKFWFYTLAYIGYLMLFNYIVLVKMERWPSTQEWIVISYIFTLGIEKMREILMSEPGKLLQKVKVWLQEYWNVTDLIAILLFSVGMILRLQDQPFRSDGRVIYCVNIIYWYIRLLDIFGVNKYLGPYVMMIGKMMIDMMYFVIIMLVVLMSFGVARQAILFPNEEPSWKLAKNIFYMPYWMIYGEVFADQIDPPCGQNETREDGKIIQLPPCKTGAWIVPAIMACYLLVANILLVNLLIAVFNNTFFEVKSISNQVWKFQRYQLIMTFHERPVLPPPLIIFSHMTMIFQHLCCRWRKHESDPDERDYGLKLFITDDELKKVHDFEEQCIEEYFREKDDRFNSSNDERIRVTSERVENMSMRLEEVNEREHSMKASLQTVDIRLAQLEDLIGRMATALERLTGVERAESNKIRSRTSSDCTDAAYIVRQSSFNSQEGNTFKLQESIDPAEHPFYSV

Row | Compound | EC50 [1] [nM] | Effect of alanine substitutions at key binding residues on CIM0216-evoked currents [2] | Higher sensitivity of mutants to agonist in dose-response experiments [3] | Effect on heat-induced channel activation (wild-type TRPM3) | Effect of alanine substitutions at key binding residues on the inhibitory effect [4]
1 | Cc1cc(NC(=O)C(c2ccccc2)N2CCCc3ccccc32)no1 (stereo not drawn) [CIM0216] | 700 | diminished or abolished | up to 3 fold | – | –
2 | CCC1(c2ccccc2)C(=O)NCNC1=O [primidone] | – | – | – | effectively suppresses heat-induced channel activation | markedly reduced or abolished
3 | pregnenolone sulfate [PregS] | – | – | up to 13 fold | – | –
